Reference: article PMC4741878, “Specific inhibition by synthetic analogs of pyruvate reveals that the pyruvate dehydrogenase reaction is essential for metabolism and viability of glioblastoma cells” (Oncotarget, 2015)

Assays:
[1] = molecular target: T1, pyruvate dehydrogenase (PDH; E1 component of the pyruvate dehydrogenase complex, PDHC) (Rattus norvegicus, UniProt P26284+P49432); test: overall PDHC reaction by NADH production: Ki in permeabilized mitochondria; IC50 […] with isolated rat heart PDHC ([…] min preincubation); type: biochemical
T1 construct: gene Pdha1; native PDHC partially purified from rat heart or liver; PDHC in alamethicin-permeabilized rat skeletal muscle mitochondria; with PDHB (E1 beta subunit), within the PDHC with DLAT, DLD and PDHX

[2] = molecular target: T1, pyruvate dehydrogenase (PDH; E1 component of the pyruvate dehydrogenase complex, PDHC); test: overall PDHC reaction by NADH production: Ki in permeabilized mitochondria; IC50 […] with isolated rat heart PDHC at […] pyruvate; type: biochemical

T1 sequence (P26284 30-390): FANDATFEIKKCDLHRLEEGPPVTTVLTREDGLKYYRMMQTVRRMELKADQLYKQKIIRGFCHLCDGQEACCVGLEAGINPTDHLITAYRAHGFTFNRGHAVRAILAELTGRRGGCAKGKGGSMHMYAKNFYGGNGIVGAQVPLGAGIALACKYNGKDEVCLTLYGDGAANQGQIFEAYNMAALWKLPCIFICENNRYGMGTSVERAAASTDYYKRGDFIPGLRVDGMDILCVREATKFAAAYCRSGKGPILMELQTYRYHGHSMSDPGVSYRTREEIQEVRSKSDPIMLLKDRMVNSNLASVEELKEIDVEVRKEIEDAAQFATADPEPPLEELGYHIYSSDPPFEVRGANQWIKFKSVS
T1 sequence (P49432 31-359): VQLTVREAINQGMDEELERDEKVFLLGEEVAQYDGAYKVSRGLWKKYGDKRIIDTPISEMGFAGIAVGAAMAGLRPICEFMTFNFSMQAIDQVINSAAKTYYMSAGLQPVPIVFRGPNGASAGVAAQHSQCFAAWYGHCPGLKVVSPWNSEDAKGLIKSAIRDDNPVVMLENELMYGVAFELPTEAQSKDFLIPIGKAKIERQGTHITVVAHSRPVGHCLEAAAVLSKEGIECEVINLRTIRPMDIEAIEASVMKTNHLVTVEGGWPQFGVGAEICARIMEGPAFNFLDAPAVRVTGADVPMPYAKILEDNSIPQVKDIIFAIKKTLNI
T1 sequence (P08461 78-632 partner): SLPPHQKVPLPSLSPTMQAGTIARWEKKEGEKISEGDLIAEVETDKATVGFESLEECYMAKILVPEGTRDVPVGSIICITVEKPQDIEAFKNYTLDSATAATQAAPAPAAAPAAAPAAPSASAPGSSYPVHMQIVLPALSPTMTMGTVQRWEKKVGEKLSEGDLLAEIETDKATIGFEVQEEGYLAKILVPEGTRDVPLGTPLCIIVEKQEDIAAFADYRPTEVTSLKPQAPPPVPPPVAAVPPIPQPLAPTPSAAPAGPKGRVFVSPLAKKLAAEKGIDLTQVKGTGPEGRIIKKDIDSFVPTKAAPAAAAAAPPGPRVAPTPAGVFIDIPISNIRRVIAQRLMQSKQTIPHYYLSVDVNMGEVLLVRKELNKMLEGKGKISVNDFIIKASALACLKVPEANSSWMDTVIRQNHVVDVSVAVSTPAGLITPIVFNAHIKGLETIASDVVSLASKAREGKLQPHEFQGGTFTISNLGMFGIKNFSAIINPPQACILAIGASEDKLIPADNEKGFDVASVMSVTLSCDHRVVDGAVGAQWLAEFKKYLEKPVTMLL
T1 sequence (Q6P6R2 36-509 partner): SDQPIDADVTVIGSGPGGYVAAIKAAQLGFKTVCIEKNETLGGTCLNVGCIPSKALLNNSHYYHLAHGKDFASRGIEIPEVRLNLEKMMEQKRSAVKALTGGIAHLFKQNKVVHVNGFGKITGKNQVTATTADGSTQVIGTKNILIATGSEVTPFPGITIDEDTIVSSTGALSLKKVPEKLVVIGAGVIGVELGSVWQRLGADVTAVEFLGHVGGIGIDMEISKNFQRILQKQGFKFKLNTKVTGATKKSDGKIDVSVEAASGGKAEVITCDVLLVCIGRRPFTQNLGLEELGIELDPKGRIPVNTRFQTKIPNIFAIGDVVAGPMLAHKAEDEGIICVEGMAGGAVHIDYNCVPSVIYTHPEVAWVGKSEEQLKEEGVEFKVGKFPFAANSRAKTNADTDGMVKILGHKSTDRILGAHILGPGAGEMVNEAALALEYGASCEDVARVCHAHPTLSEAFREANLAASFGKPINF

Compound `CC(=O)[PH](=O)O` [AcPH, acetyl phosphinate] has a Ki [1] of 0.1 µM.

For `COP(=O)(O)C(C)=O` [AcPMe, methyl ester of acetyl phosphonate], the Ki [2] was 40 µM.
